“Also recorded” adds a separate entry of the source.
How the values were obtained:
mice [1] = system: mice
Protocol: Evaluation of the LNPs via intramuscular injection. The in vivo potency of the ionizable lipids was screened through intramuscular injection of LNPs loaded with mRNA encoding firefly luciferase protein. These LNPs were formulated with a molar composition of (35:16:46.5:2.5) using one of the synthesized ionizable lipids, DOPE as a helper lipid, cholesterol, and DMPE-PEG respectively. mRNA-loaded LNPs were intramuscularly administered in mice at a dose of 1 μg, and expression of luciferase protein was monitored at 6 hours via IVIS bioluminescent imaging (FIG. 3). […] Without wishing to be bound by theory, increased levels of protein expression may enhance the response to vaccination.
In Vitro and In Vivo Screening of AMG Lipid Library. Following synthesis, the mRNA delivery efficacy of the AMG lipids was evaluated through both in vitro and in vivo screens. To screen the first generation of AMG lipids (FIGS. 11B and 11C), firefly luciferase (FLuc) mRNA was encapsulated into LNPs using a previously reported formulation containing ionizable lipid, 1,2-dioleoyl-sn-glycero-3-phosphoethanolamine (DOPE), cholesterol, and 1,2-dimyristoyl-rac-glycero-3-methoxypolyethylene glycol-2000 (DMG-PEG).^19 C2C12 myoblast cells were treated with these LNPs and FLuc expression was evaluated at 24 hrs. (FIG. 16). […] Each of these batches was then injected IM into the quadriceps of mice, and expression was characterized via IVIS imaging (Screen 1, FIG. 11E).
AMG lipids for enhanced mRNA delivery and improved tolerability. A rational design approach was used to further vary the ionizable lipid structure to enhance the mRNA delivery and immunogenicity. […] The lipid tail structure was varied to promote efficient LNP self-assembly while simultaneously promoting endosomal membrane disruption.^18 Monounsaturated (G41-G44) or fully saturated (GC12-GC18) lipid tails were developed. […] Without wishing to be bound by any particular theory, tail length may impact membrane fusion and endosomal escape.^10,11
Next, the headgroup was further modified to further improve delivery. Headgroups play a multifunctional role including enhancing LNP-mRNA interactions, promoting membrane-LNP fusion and endosomal escape which all contribute to mRNA delivery.^23 A series of similar aza-crown ethers were used to further investigate structure-activity relationship and enhance mRNA delivery. These headgroups featured between three and eight nitrogens linked by varying length of methylene chains. Each of these headgroups were reacted with tail G41 to synthesize a next generation of AMG lipids, which were then formulated with FLuc mRNA and evaluated for mRNA delivery following IM administration in mice (FIG. 12B).

mice [2] = details: female BALB/cJ mice, 6 hours after the boost dose
[3] = system: influenza A/Tasmania/503/2020 virus; test: Hemagglutination inhibition (HAI) assay, neutralizing antibody titers after HA mRNA vaccination; format: in vivo, BALB/cJ mice
Protocol: To test this, a dose-response vaccination experiment ranging from […] was performed in female BALB/cJ mice. Neutralizing antibody titers were evaluated using the hemagglutination inhibition (HAI) assay. HAI titers are strongly correlated with vaccine protection and the assay is an FDA approved method for testing influenza vaccine efficacy^38,39 In agreement with the binding antibody titers, higher neutralizing […] were measured across all three tested doses: SM-102 only gave detectable neutralizing immunity at a 1 μg dose, while AMG1541 gave neutralizing immunity with as little was 10 ng of mRNA (FIG. 13H). Not only was AMG1541 able to generate neutralizing immunity at a very low dose, the binding and neutralizing antibody titers were equivalent in mice vaccinated with AMG1541 at a […] as those with SM-102 at a […] (FIG. 13H).
HAI Assay. HAI assays were performed by IBT bioservices. Viral titers were standardized by defining one HA unit as the amount of inactivated influenza A/Tasmania/503/2020 virus required to completely hemagglutinate an equal volume of 1% turkey red blood cells (TRBCs) (Lampire). Serum was heat inactivated at 56° C. then receptor destroying enzyme (RDE) (DENKA) was added to the serum and incubated at 37° C. for 20 hrs. RDE was then deactivated at 56° C. for 60 mins. Serum samples were then serially diluted in DPBS and 25 μL of diluted serum was added to a 96-well V bottom plate. Subsequently, four HA units of inactivated virus in 25 μL of DPBS were added to the diluted serum and incubated for 30 mins. at RT. 50 μL of a 1% (4×10^7 cells/mL) solution of turkey red blood cells (Lampire) was then added to the serum and virus mixture.

BALB/c mice = details: spike mRNA LNPs on day 0 and day 21, serum day 35
Protocol: Briefly, 6-8 week old BALB/c mice were vaccinated with 1 g of mRNA LNPs on day 0 and on day 21, and serum was collected on day 35 to characterize the antibody response to vaccination.
Immunization studies. […] All LNPs were injected IM in the quadricep with an injection volume of 50 μL with the doses specified in the main text. All vaccination experiments followed a prime-boost dosing regimen with doses given on day 0 and day 21. On day 35, mice were sacrificed, and blood was collected via cardiac puncture and their spleens were collected for further characterization.
Binding antibody ELISAs. […] Plates were coated overnight at 4° C. by adding 100 μL of a 1 μg/mL antigen solution in 100 mM carbonate buffer, pH 9.6 to each well. The coated plates were then washed with ELISA wash buffer (Biolegend) and blocked for 1 hr. at room temperature (RT) with 150 μL of 1% BSA in PBS. The plate was then washed again, and 100 μL of serially diluted serum samples were then added to the plate and incubated at RT for 1 hr. Next, the plate was washed and the secondary goat anti-mouse IgG, HRP antibody (ThermoFisher) was diluted 1:3,000. 100 μL of this solution added to each well an incubated at RT for 1 hr. After incubation, the plate was washed and 100 μL of TMB chromogen solution (ThermoFisher) was added to each well and incubated for 30 mins. Finally, the HRP reaction was stopped by the addition of 100 μL of 0.5 M H2SO4. The absorbance of each well was immediately read at 450 nm with 600 nm as a reference using an Infinite M200 Pro (Tecan) plate reader. The resultant data were then fit with a 4-PL sigmodal curve and the endpoint titers were taken as the point at which this curve crossed four times the absorbance of the blank wells.

With CCCCCC/C=C\CCCC(=O)OCC(O)CN1CCN(CC(O)COC(=O)CCC/C=C\CCCCCC)CCN(CC(O)COC(=O)CCC/C=C\CCCCCC)CCN(CC(O)COC(=O)CCC/C=C\CCCCCC)CCN(CC(O)COC(=O)CCC/C=C\CCCCCC)CCN(CC(O)COC(=O)CCC/C=C\CCCCCC)CC1 (centres unmarked) [AMG1541] the “fold higher expression compared to AMG104” value (mice [1]; IM, 1 μg, 6 hours) was 4.5 fold, the “fold higher in vivo mRNA transfection compared to SM-102” value (mice [1]; IM, 1 μg, 6 hours) was 3.5 fold and the “fold improvement in expression over cKK-E12” value (mice [1]; IM, 1 μg, 6 hours) was 1.7 fold. The “potency in intramuscular administration of mRNA compared to SM-102 and ALC-0315” value (mice [1]; mouse, in vivo) was “equal or higher potency”, the “times higher in vivo mRNA delivery compared to FDA-approved counterparts” value (mice [1]; mouse, in vivo) was “approximately three” and the “fold higher serum IL-2 than in SM-102 vaccinated mice” value (mice [2]) was 5 fold. The “serum cytokine levels compared with SM-102” value (mice [2]; except IL-2) was “comparable cytokine levels”, the “fold higher neutralizing titers than SM-102” value ([3]; equivalent vaccine dose) was 13 fold and the “lowest mRNA dose giving neutralizing immunity” value ([3]; female BALB/cJ mice, dose-response vaccination) was 10 ng. The “fold lower dose giving similar protective immunity to SM-102” value ([3]; mouse, in vivo) was 100 fold and the “antibody titers after vaccination” value (BALB/c mice) was “high antibody titers; also recorded: highest antibody titers”.
